Experimental findings from article PMC4705983, “Structural Dissection of the Maltodextrin Disproportionation Cycle of the Arabidopsis Plastidial Disproportionating Enzyme 1 (DPE1)” (The Journal of Biological Chemistry, 2015) are described below.

Test [1] addresses T1, AtDPE1 (disproportionating enzyme 1) (Arabidopsis thaliana, UniProt Q9LV91).
T1 construct: gene DPE1; residues 46-576, transit peptide removed, N-terminal His6 tag kept (pET151/D-TOPO), homodimer
T1 sequence (Q9LV91 46-576): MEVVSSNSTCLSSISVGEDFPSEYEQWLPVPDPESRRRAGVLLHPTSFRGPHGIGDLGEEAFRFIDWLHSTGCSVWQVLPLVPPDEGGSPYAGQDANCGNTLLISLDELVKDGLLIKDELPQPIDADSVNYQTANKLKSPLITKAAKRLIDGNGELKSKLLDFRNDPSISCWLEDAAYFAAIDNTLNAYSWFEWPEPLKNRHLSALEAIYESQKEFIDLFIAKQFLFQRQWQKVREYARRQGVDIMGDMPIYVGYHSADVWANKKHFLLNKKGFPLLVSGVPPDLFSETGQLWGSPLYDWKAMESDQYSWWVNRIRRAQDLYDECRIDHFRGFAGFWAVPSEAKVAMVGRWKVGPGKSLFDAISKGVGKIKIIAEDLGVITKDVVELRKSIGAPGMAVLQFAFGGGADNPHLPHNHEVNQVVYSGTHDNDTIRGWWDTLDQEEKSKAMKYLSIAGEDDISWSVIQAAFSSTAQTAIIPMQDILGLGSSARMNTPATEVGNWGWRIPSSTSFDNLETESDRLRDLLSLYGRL
The test can be described thus: X-ray crystallography, crystal soak. The note with it: covalent; 10 mM soak, pH 8.0; only the maltosyl unit (subsites -2, -1) linked to Asp-373 seen, from slow cleavage; 2.30 Å. It is filed as biochemical.

Test [2] concerns the target T1, AtDPE1 (disproportionating enzyme 1). The test can be described thus: turnover in crystal (transglycosylation during soak), X-ray crystallography. The note with it: 10 mM soak, pH 8.0; intact maltotriose not seen, longer malto-oligosaccharide bound. It is filed as biochemical.

Regarding `OC[C@H]1O[C@@H]2O[C@H]3[C@H](O)[C@@H](O)[C@@H](O[C@H]4[C@H](O)[C@@H](O)[C@@H](O[C@H]5[C@H](O)[C@@H](O)[C@@H](O[C@H]6[C@H](O)[C@@H](O)[C@@H](O[C@H]7[C@H](O)[C@@H](O)[C@@H](O[C@H]8[C@H](O)[C@@H](O)[C@@H](O[C@H]1[C@H](O)[C@H]2O)O[C@@H]8CO)O[C@@H]7CO)O[C@@H]6CO)O[C@@H]5CO)O[C@@H]4CO)O[C@@H]3CO` [BCD, β-cyclodextrin], the “X-ray crystallography, crystal soak” value in test [1] is listed as “The covalently bound donor most likely resulted from a slow hydrolysis of β-cyclodextrin”.

In the case of `OC[C@H]1O[C@H](O[C@H]2[C@H](O)[C@@H](O)[C@@H](O[C@H]3[C@H](O)[C@@H](O)C(O)O[C@@H]3CO)O[C@@H]2CO)[C@H](O)[C@@H](O)[C@@H]1O` (some centres unmarked) [MA3, maltotriose], the “turnover in crystal (transglycosylation during soak), X-ray crystallography” value in test [2] is recorded as “malto-oligosaccharide in each active site, indicative of transglycosylation reactions occurring during crystal soaking”.
